Assay in all cases: DTP human tumour cell line panel, 48 h
Assay [1] has as its system SF-539.
For assay [2], the system named is BT-549.
The subject of assay [3] is KM12.
The test system of assay [4] is UO-31.
Assay [5] concerns ACHN.
Assay [6] relates to T47D.
Assay [7] concerns MOLT-4.
For assay [8], the system named is HCC 2998.
Assay [9] relates to CAKI-1.
The subject of assay [10] is SNB-19.
The subject of assay [11] is RPMI-8226.
Assay [12] deals with SK-OV-3.
In assay [13] the test system is OVCAR-5.
Assay [14] deals with M14.
The subject of assay [15] is Hs-578T.
For assay [16], the system named is SK-MEL-28.
Assay [17] concerns MDA-MB-231.
The subject of assay [18] is A549.
Assay [19] deals with NCI-H226.
The test system of assay [20] is EKVX.

Data on 7 molecules can be found in ChEMBL document CHEMBL1201862, “PubChem BioAssay data set” (2004).

Usually GI50 stands for the concentration at which growth is held to half of that of the control.

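Grown in 96-well plates, cells were treated for 48 hours with each compound at five concentrations. Insufficient inhibition: endpoint recorded as highest concentration tested. GI50 is the concentration that inhibits growth by half.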 Calls of active or inactive are those of the source. Cut-off read from the data, not from the text of the source: active = GI50 up to about 1.1 µM and inactive = higher. Where only a bound is given, the exact number is not on record here.

For the molecule `O=C1N[C@@H]2c3c(Br)sc(Br)c3C(=O)[C@@H]2N1`, the GI50 was 2.52 µM (inactive) in [1]; 17 µM (inactive) in assay [2]; 5.28 µM (inactive) in assay [3]; 3.53 µM (inactive) in [4]; 4.02 µM (inactive) in [5]; 5.64 µM (inactive) in [6]. The GI50 in assay [7] is 2.76 µM (inactive); in assay [8], 1.81 µM (inactive); in assay [9] it was 3.8 µM (inactive); in assay [10], 11.3 µM (inactive); in assay [11], 3.05 µM (inactive); in assay [12] it was 14.1 µM (inactive). Further, the GI50 in [13] was 17.2 µM (inactive); in [14], 3.82 µM (inactive); in assay [15] it was 8.28 µM (inactive); in assay [16], 3.78 µM (inactive); in [17], 4.83 µM (inactive); in assay [18], 12.6 µM (inactive). The GI50 is 29.6 µM (inactive) in assay [19] and 4.08 µM (inactive) in [20].
As for `COc1cc(/N=N/c2cccc(S(N)(=O)=O)c2)c2ccccc2c1N`, the GI50 in assay [1] was 3.05 µM (inactive); in assay [2], 7.33 µM (inactive); in assay [3] it was 12.9 µM (inactive); in assay [4] it was 15.3 µM (inactive); in [5] it was 15.5 µM (inactive); in [6], 13.2 µM (inactive). For the same molecule, the GI50 is 5.65 µM (inactive) in [7]; 8.04 µM (inactive) in assay [8]; 7.06 µM (inactive) in assay [9]; 14.6 µM (inactive) in [10]; 16.3 µM (inactive) in [11]; 15.6 µM (inactive) in assay [12]. In addition, the GI50 was 17.5 µM (inactive) in assay [13]; 1.91 µM (inactive) in assay [14]; 2.67 µM (inactive) in assay [15]; 7.11 µM (inactive) in assay [16]; 10.5 µM (inactive) in assay [17]; 14 µM (inactive) in [18]. For the same molecule, the values for the GI50 in assay [19] and in [20] were 19.9 µM (inactive) and 13.8 µM (inactive), respectively.
As for `O=C(C1OC1c1ccc(O)cc1)C12CC3CC(CC(C3)C1)C2` (stereo not given), the GI50 in [1] was 45 µM (inactive); in assay [2] it was 31.2 µM (inactive); in assay [3] it was 98.9 µM (inactive); in assay [4], 32.1 µM (inactive); in assay [5], 42 µM (inactive); in assay [6], 22.9 µM (inactive). The GI50 in [7] is 17.8 µM (inactive); in assay [8], > 100 µM (inactive); in assay [9], 40.8 µM (inactive); in assay [10], > 100 µM (inactive); in assay [11], 27 µM (inactive); in assay [12] it was > 100 µM (inactive). Also, the GI50 in assay [13] was > 100 µM (inactive); in assay [14], > 64.3 µM (inactive); in assay [15], > 100 µM (inactive); in assay [16], > 100 µM (inactive); in assay [17], > 100 µM (inactive); in assay [18], 95.3 µM (inactive). Besides, the GI50 in assay [19] was > 100 µM (inactive); in assay [20], > 58.1 µM (inactive).
Consider `O=C1Nc2ccccc2NC1C1OC(c2ccccc2)=CC1=O` (stereo not given), for which the GI50 in [1], in assay [2], in assay [3], in [4], in [5] and in [6] was > 100 µM (inactive) throughout. The GI50 in assay [7], in assay [8], in [9], in assay [10], in [11] and in assay [12] was > 100 µM (inactive) each time. Moreover, the GI50 in assay [13], in assay [14], in [15], in assay [16], in [17] and in assay [18] was > 100 µM (inactive) throughout. Moreover, the GI50 in [19] and in assay [20] was > 100 µM (inactive) each time.
As for `Cc1cc2ccccc2n1CC(=O)NCC(C)C`, the GI50 in assay [1], in assay [2], in [3], in assay [4], in assay [5] and in assay [6] was > 100 µM (inactive) in each case. The GI50 in assay [7], in [8], in assay [9], in [10], in assay [11] and in assay [12] was > 100 µM (inactive) throughout. Further, the GI50 in assay [13], in [14], in [15], in [16], in assay [17] and in assay [18] was > 100 µM (inactive) in each case. For the same molecule, the GI50 in assay [19] and in [20] was > 100 µM (inactive) each time.
Take `COc1nc2nccnc2c(=O)n1C`: the GI50 in assay [1], in assay [2], in assay [3], in [4], in [5] and in assay [6] was > 10 µM (inactive) throughout. Besides, the GI50 in [7], in [8], in assay [9], in assay [10], in assay [11] and in assay [12] was > 10 µM (inactive) in each case. Moreover, the GI50 in assay [13], in [14], in assay [15], in [16], in [17] and in assay [18] was > 10 µM (inactive) each time. The GI50 in assay [19] and in assay [20] was > 10 µM (inactive) each time.
In the case of `COc1cc2cc(C(=O)N3CC(CCl)c4c3cc(N)c3ccccc43)[nH]c2c(OC)c1OC` (stereo not given), the GI50 in assay [1], in assay [2], in assay [3], in assay [4], in [5] and in assay [6] was < 0.01 µM (active) each time. Also, the 50% growth inhibitory concentration (GI50) in [7], in assay [8], in assay [9], in [10], in assay [11] and in assay [12] was < 0.01 µM (active) throughout. For the same molecule, the GI50 in assay [13], in [14], in assay [15], in [16], in assay [17] and in [18] was < 0.01 µM (active) throughout. The GI50 in [19] and in [20] was < 0.01 µM (active) throughout.
